Key:
[1] = test system: mouse duodenum; test: Amperometric measurement of 5-HT secretion, mouse small intestine; details: 10 mM Indole
Text: (§1) These experiments using C57BL/6J mice were approved by the Flinders University Animal Welfare Committee (number 965-19) and human ileum tissue was collected from resected small and large intestine from patients that gave written informed consent under the approval of the Southern Adelaide Clinical Human Research Ethics Committee (number 50.07) as previous (Sun et al., 2019a). Mice were euthanized at 8 to 12 weeks by isoflurane overdose followed by cervical dislocation. The duodenum was removed and placed in Krebs solution oxygenated with 95% O2, 5% CO2. A midline incision was made along the duodenum to create a flat sheet, the section was pinned with the mucosal side up in an organ bath lined with Sylgard and containing oxygenated Krebs solution. Serotonin release was measured using amperometry. A carbon-fibre electrode (5-μm diameter, ProCFE; Dagan Corporation, Minneapolis, Minn.), was lowered above the mucosa and 400 mV potential was applied to the electrode causing oxidation of serotonin (Zelkas et al., 2015). […] The change in amplitude due to serotonin oxidation was recorded using an EPC-10 amplifier and Pulse software (HEKA Electronic, Lambrecht/Pfalz, Germany), and samples at 10 kHz and low-pass filtered at 1 kHz. Data was assessed as peak current during each treatment. Data was analyzed comparing all groups using one-way ANOVA with Tukey's post-hoc test. […]

[2] = test system: intestinal motility; test: Zebrafish intestinal motility (PIV-Lab velocity analysis); type: in vivo; details: indole stimulation
Experimental: For EEC Trpa1 activation using the Optovin platform, zebrafish larvae were treated with 10 μM Optovin overnight. Following Optovin treatment, unanesthetized zebrafish were mounted in 1% LMA and imaged under a 780 upright Zeiss confocal microscope using 20× water objective lenses. For all the experiments, the mid-intestine region was imaged (FIG. 10D). The intestinal epithelium was selected as the region of interest (ROI) (FIG. 10A). Serial images were obtained at 1 s/frame. A 405 nm pulse of light was applied to the ROI at 1 pulse/10 s. For some experiments (FIG. 7D-F, FIG. 10B-G), the images were obtained at 10 s/frame.
The zebrafish intestinal motility is quantified through recorded image series of zebrafish intestine using the method similar as previously described (Ganz et al., 2018). Intestinal p velocity and v velocity were used to estimate intestinal motility in zebrafish as previously described using the PIV-Lab MATLAB app (Ganz et al., 2018). A positive value of the μ velocity indicates an anterograde intestinal movement and a negative value of the μ velocity indicates a retrograde intestinal movement. The time-course p velocity number is plotted as heatmaps. When calculating the mean velocity, only the mean velocity magnitude was calculated, which therefore doesn't account for the movement direction. The MTrackJ FIJI plugin was used to quantify the mean velocity magnitude (Meijering et al., 2012).

[3] = target: human TRPA1 (Homo sapiens, UniProt O75762); test: Ca2+ influx (Calcium 6 fluorescence) in human TRPA1 expressing HEK-293T cells; type: cell-based
human TRPA1, sequence (O75762 whole entry): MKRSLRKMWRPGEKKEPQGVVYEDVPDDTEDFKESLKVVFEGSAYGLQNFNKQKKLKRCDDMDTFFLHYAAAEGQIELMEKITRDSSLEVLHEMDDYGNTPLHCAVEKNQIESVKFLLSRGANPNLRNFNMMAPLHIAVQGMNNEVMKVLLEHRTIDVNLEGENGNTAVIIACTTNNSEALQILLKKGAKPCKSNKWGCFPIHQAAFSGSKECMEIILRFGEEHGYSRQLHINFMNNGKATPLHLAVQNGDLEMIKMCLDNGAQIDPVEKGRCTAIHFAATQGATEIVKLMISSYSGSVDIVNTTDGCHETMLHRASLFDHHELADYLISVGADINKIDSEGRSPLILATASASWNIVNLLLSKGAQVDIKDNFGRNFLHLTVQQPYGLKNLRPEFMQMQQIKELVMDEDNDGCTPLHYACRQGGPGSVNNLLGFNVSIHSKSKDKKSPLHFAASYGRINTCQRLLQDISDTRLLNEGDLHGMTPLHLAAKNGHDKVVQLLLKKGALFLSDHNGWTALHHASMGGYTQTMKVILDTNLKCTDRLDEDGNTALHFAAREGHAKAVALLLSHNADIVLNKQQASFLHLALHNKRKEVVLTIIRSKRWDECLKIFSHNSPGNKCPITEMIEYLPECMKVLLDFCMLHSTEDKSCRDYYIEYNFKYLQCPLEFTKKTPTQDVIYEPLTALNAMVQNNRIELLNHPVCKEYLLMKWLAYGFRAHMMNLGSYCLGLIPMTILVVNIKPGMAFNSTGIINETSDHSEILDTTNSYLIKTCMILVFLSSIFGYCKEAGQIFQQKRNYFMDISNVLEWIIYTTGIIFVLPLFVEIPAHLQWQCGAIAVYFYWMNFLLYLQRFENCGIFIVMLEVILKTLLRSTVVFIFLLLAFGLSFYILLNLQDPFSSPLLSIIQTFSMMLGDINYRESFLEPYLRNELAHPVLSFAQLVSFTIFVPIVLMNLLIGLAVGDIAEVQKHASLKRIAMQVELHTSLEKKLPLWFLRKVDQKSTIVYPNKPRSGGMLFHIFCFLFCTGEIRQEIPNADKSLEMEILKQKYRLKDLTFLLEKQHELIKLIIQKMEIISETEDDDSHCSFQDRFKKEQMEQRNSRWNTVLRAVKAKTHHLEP
Experimental: HEK-293T cells were cultured in DMEM (Thermofisher Scientific, Waltham, Mass.) and supplemented with 10% fetal bovine serum (FBS) (Thermofisher Scientific), penicillin (100 units/mL) and streptomycin (0.1 mg/mL). Cells were plated on 100 mm tissue culture plates coated with poly-D-lysine (Sigma Aldrich, Saint Louis, Mo.) and grown to ˜60% confluence. The cells were transiently transfected for 16-24 hours with either human or mouse orthologs of TRPA1 using Fugene 6 transfection reagents and Opti-MEM (Thermofisher Scientific) according to the manufacturer's protocol. Subsequently, cells were trypsinized, re-suspended and re-plated onto poly-D-lysine coated 96-well plates (Krystal black walled plates, Genesee Scientific) at 5×10^5 cells/mL (100 μL/well) and allowed to grow for another 16-20 hrs prior to the experiments. Cells were maintained as monolayers in a 5% CO2 incubator at 37° C.
Measurements of changes in intracellular Ca^2+ concentrations ([Ca^2+]i) were performed as described previously (Caceres et al., 2017). In brief, cells in 96-well plates were loaded with Calcium 6, a no-wash fluorescent indicator, for 1.5 hrs (Molecular Devices, San Jose, Calif.) and then transferred to a FlexStation III benchtop scanning fluorometer chamber (Molecular Devices). Fluorescence measurements in the FlexStation were performed at 37° C. (Ex:485 nm, Em: 525 nm at every 1.8 s). After recording baseline fluorescence, agonists (indole, IAld, cinnamaldehyde) were added and fluorescence was monitored for a total of 60 s. […] The change in fluorescence was measured as Fmax-F0, where Fmax is the maximum fluorescence and F0 is the baseline fluorescence measured in each well.

[4] = test system: human ileum; test: Amperometric measurement of 5-HT secretion, human small intestine; details: 10 mM Indole
Text: as §1

## c1ccc2[nH]ccc2c1 [Indole]
[1]
  5-HT secretion in mouse duodenum: significant increase
[2]
  Intestinal motility on stimulation of zebrafish larvae: increases intestinal motility
[3]
  Activation of human TRPA1 receptor transfected into HEK cells: activated
  EC50: 88.7 µM
[3]; efficiency comparable to cinnamaldehyde (CAD)
  TRPA1 agonist efficacy: full TRPA1 agonist activity
[4]
  5-HT secretion in human ileum: significant increase

Source: patent US20230149355A1, “COMPOSITIONS AND METHODS FOR MODULATING TRP CHANNEL ACTIVITY” (priority 2020, published 2023)
